# According to US8772269B2, “Use of sulfonamide-including compounds in combination with angiogenesis inhibitors” (Eisai R&D Management Co., Ltd., priority 2004, dated 2014):
# Experiments:
# [1] = tested on: human renal cancer cell line 786-O; test: Subcutaneous transplantation model of 786-O, E7820 and Compound A; type: in vivo, nude mice; conditions: E7820 100 mg/kg twice a day, Compound A 100 mg/kg once a day, oral, 2 weeks; alone or combined
# Procedure: Human renal cancer cell line 786-O (purchased from ATCC) was cultured in RPMI1640 (containing 10% FBS) to about 80% confluency in a 5% carbon dioxide incubator, and the cells were collected by trypsin-EDTA. The cells were diluted with 50% Matrigel-containing phosphate buffer to prepare a 1×10^8 cells/mL suspension, and the resulting cell suspension was subcutaneously transplanted in 0.1 mL volumes to nude mice at the side of their body. Starting from 7 days after the transplantation, E7820 (100 mg/kg, given twice a day for 2 weeks) and 4-(3-chloro-4-(cyclopropylaminocarbonyl)aminophenoxy)-7-methoxy-6-quinolinecarboxamide (100 mg/kg, given once a day for 2 weeks) were administered alone or in combination by the oral route. Tumor long and short axes were measured with a digimatic caliper (Mitsutoyo) and used to calculate both tumor volume and relative tumor volume according to the following equations. Tumor volume TV=tumor long axis(mm)×tumor short axis^2(mm^2)/2 Relative tumor volume RTV=tumor volume at the day of measurement/tumor volume at the first day of administration
# [2] = tested on: Human umbilical vein endothelial cells; test: VEGF-induced cell proliferation in vascular endothelial cell proliferation assay (in vitro); type: cell-based; conditions: 3 days, absorbance relative to untreated cells
# Procedure: Human umbilical vein endothelial cells were suspended in 2% FBS-containing Human endothelial-SFM Basal Growth Medium (Invitrogen Corporation) and adjusted to 1×10^4 cells/ml. The resulting cell suspension was dispensed in 100 μl aliquots into each well of 96-well plates and cultured at 37° C. in a 5% carbon dioxide incubator. On the next day, a solution containing E7820, a solution containing bevacizumab (Avastin®, purchased from Genentech), and a solution containing both E7820 and bevacizumab were respectively diluted with Human endothelial-SFM Basal Growth Medium containing 20 ng/ml VEGF (Genzyme Techne Corp.) and 2% FBS. The resulting diluted solutions were then added to the individual wells of the plates in a volume of 100 μl/well, followed by further culturing.
# The combined effect was calculated according to the equation of Chou et al. (Adv. Enzyme Regul., 22, 27-55, 1984).
# [3] = tested on: human colon cancer cell line Colo320DM; test: Subcutaneous transplantation model of Colo320DM, E7070 and bevacizumab; type: in vivo, nude mice; conditions: E7070 40 mg/kg/day i.v. Day 1-5, bevacizumab 25 mg/kg/day i.v. Days 1, 5, 8, 12; for Relative tumor volume (RTV) Mean ± SD: at Day 23; for Tx4 Mean ± SD: time for tumor to grow 4-fold of initial volume
# Procedure: Human colon cancer cell line Colo320DM (purchased from ATCC) was cultured in RPMI1640 (containing 10% FBS) to about 80% confluency in a 5% carbon dioxide incubator, and the cells were collected by trypsin-EDTA. The cells were diluted with Hanks balanced solution to prepare a 5×10^7 cells/ml suspension, and the resulting cell suspension was subcutaneously transplanted in 0.1 mL volumes to nude mice at the side of their body.
# After the transplantation, from the time point when the mean tumor volume reached 259 mm^3, E7070 (40 mg/kg/day) and bevacizumab (25 mg/kg/day) were administered alone or in combination.
# E7070 alone was administered once a day for 5 days (Day 1 to Day 5) by the intravenous route. Bevacizumab alone was administered twice a week for 2 weeks (Days 1, 5, 8 and 12) by the intravenous route.
# The co-treated group was administered with E7070 at Day 1 to Day 5 by the intravenous route and with bevacizumab at Days 1, 5, 8 and 12 by the intravenous route.
# After starting the administration, tumor long and short axes were measured at a frequency of twice a week with a digimatic caliper (Mitsutoyo) and used to calculate the tumor volume according to the following equation. Tumor volume TV=tumor long axis(mm)×tumor short axis^2(mm^2)/2
# For determination of the anti-tumor effect, the values of the following two parameters were used.
# Tx4: Time (days) required for a tumor to grow 4-fold of the initial tumor volume
# RTV: Relative tumor volume (RTV) at Day 23* • * RTV=tumor volume at Day 23/initial tumor volume at Day 1
# Likewise, if the co-treated group produces a higher anti-tumor effect than the groups treated with either drug alone and has a significance level of 0.05<P<0.10, E7070 and bevacizumab are determined to have a synergistic tendency.
# [4] = tested on: human colon cancer cell line Colo320DM; test: Subcutaneous transplantation model of Colo320DM, E7820 and bevacizumab; type: in vivo, nude mice; conditions: E7820 200 mg/kg twice a day oral 3 weeks; bevacizumab 25 mg/kg twice a week intravenous 3 weeks; alone or combined
# Procedure: Human colon cancer cell line Colo320DM (purchased from Dainippon Pharmaceutical Co., Ltd., Japan) was cultured at 37° C. in RPMI1640 (containing 10% FBS) to about 80% confluency in a 5% carbon dioxide incubator, and the cells were collected by trypsin-EDTA. The cells were diluted with 50% Matrigel-containing phosphate buffer to prepare a 5×10^7 cells/mL suspension, and the resulting cell suspension was subcutaneously transplanted in 0.1 mL volumes to nude mice at the side of their body. Starting from 7 days after the transplantation, E7820 (200 mg/kg, given twice a day for 3 weeks by the oral route) and bevacizumab (25 mg/kg, given twice a week for 3 weeks by the intravenous route) were administered. Tumor long and short axes were measured with a digimatic caliper (Mitsutoyo) and used to calculate both tumor volume and relative tumor volume according to the following equations. Tumor volume TV=tumor long axis(mm)×tumor short axis^2(mm^2)/2 Relative tumor volume RTV=tumor volume at the day of measurement/tumor volume at the first day of administration
# HCT116-C9 = test: Cell growth inhibition assay (MTT method), cross resistance study; type: cell-based, human; conditions: Example 5, HCT116-C9, 72 hours, read-out: antiproliferative activity IC50
# Description: E7070-resistant sub-clonal cell lines were used to evaluate the antiproliferative activity of E7820, LY186641, LY295501, LY-ASAP and CQS. HCT116-C9 was a sub-clone separated from the human colon cancer cell line HCT116 (American Type Culture Collection, Manassas, Va., U.S.A.), while HCT116-C9-C1 and HCT116-C9-C4 were E7070-resistant sub-clonal cell lines obtained by culturing this HCT116-C9 in the presence of gradually increasing concentrations of E7070 (Molecular Cancer Therapeutics, 2002, 1, 275-286).
# These 3 cell lines HCT116-C9, HCT116-C9-C1 and HCT116-C9-C4 were each seeded at 3000 cells/well in 96-well microplates (flat-bottomed) (50 μl/well). After 24 hours, a 3-fold dilution series of each compound was added (50 μl/well). After 72 hours, the cell growth inhibitory activity was evaluated by the MTT method (Mossmann T., J. Immunol. Methods, 1983, 65, 55-63). The least squares method was used to determine the 50% growth inhibitory concentration of each compound against each cancer cell line.
# Exactly the same procedure as used in Example 4 was repeated to evaluate the antiproliferative activity of both LY573636 and E7070 using E7070-resistant sub-clonal cell lines.
# [5] = compound concentration 0.0006 μg/μl
# [6] = compound concentration 0.0012 μg/μl
# [7] = compound concentration 0.0024 μg/μl
# [8] = compound concentration 0.0049 μg/μl
# [9] = compound concentration 0.0098 μg/μl
# [10] = compound concentration 0.0195 μg/μl
# [11] = compound concentration 0.0391 μg/μl
# [12] = compound concentration 0.0781 μg/μl
# [13] = compound concentration 0.1563 μg/μl
# [14] = compound concentration 0.3125 μg/μl
# [15] = compound concentration 0.6250 μg/μl
# [16] = compound concentration 1.2500 μg/μl
# [17] = compound concentration 2.5000 μg/μl
# [18] = compound concentration 5.0000 μg/μl
# [19] = compound concentration 10.0000 μg/μl
# [20] = compound concentration 20.0000 μg/μl
# [21] = compound concentration 40.0000 μg/μl
Compound,Relative tumor volume at Day 22 Mean ± SD [1],"% of control [2, 5]","% of control [2, 6]","% of control [2, 7]","% of control [2, 8]","% of control [2, 9]","% of control [2, 10]","% of control [2, 11]","% of control [2, 12]","% of control [2, 13]","% of control [2, 14]","% of control [2, 15]","% of control [2, 16]","% of control [2, 17]","% of control [2, 18]","% of control [2, 19]","% of control [2, 20]","% of control [2, 21]",Relative tumor volume (RTV) Mean ± SD [3],Tx4 Mean ± SD [3] [days],also measured
"COc1cc2nccc(Oc3ccc(NC(=O)NC4CC4)c(Cl)c3)c2cc1C(N)=O [Compound A, 4-(3-chloro-4-(cyclopropylaminocarbonyl)aminophenoxy)-7-methoxy-6-quinolinecarboxamide]",0.59 ± 0.12,–,–,–,–,–,–,–,–,–,–,–,–,–,–,–,–,–,–,–,–
"Bevacizumab: human anti-VEGF (vascular endothelial growth factor) monoclonal antibody, purchased from Genentech under the name Avastin [reference compound]",–,96.0 % of control,94.2 % of control,89.5 % of control,88.3 % of control,80.8 % of control,78.8 % of control,71.0 % of control,68.5 % of control,64.2 % of control,62.0 % of control,60.1 % of control,56.1 % of control,51.8 % of control,54.8 % of control,53.2 % of control,50.4 % of control,51.7 % of control,2.84 ± 0.68,26.3 ± 2.8,Relative tumor volume at Day 22 Mean ± SD [4]: 5.1 ± 0.8
"Cc1ccc(NS(=O)(=O)c2cccc(C#N)c2)c2[nH]cc(C#N)c12 [E7820, N-(3-cyano-4-methyl-1H-indol-7-yl)-3-cyanobenzenesulfonamide]",0.80 ± 0.13,98.9 % of control,102.2 % of control,104.8 % of control,99.4 % of control,97.2 % of control,88.9 % of control,87.9 % of control,72.3 % of control,60.5 % of control,56.2 % of control,57.2 % of control,47.8 % of control,41.4 % of control,37.4 % of control,34.4 % of control,33.1 % of control,12.5 % of control,–,–,–
"NS(=O)(=O)c1ccc(S(=O)(=O)Nc2cccc3c(Cl)c[nH]c23)cc1 [E7070, N-(3-chloro-1H-indol-7-yl)-4-sulfamoylbenzenesulfonamide]",–,–,–,–,–,–,–,–,–,–,–,–,–,–,–,–,–,–,2.70 ± 0.97,27.0 ± 3.4,IC50 (HCT116-C9): 127 nM
